Measurements as given in patent US20210069295A1, “GALECTINS CONTROL MTOR IN RESPONSE TO ENDOMEMBRANE DAMAGE AND PROVIDE A MECHANISM AND TARGET FOR THE TREATMENT OF AUTOPHAGY-RELATED DISEASES” (STC. UNM, priority 2017, published 2021).
Peptide text beside a SMILES is read from it.

Experiments:
[1] = tested on: TFEB; assay: TFEB nuclear translocation by high-content microscopy in HeLa cells; type: cell-based; settings: 1 h full medium
Experimental: (A) Dose-response analysis of mTOR activity in HEK293T cells treated with glycyl-L-phenylalanine 2-naphththylamide (GPN) in full medium for 1 h. mTOR activity was monitored by inununoblotting analysis of S6K1 (T389) and ULK1 (S757) phosphorylation (phosphorylated S6K (T389) and ULK1 (S757) relative to total S6K and ULK1, respectively). (B) Analysis of mTOR activity (as in A) after GPN washout. HEK293T cells were treated with 100 μM GPN for 1 h followed by 1 h washout in full medium. Data, means±SEM (n=3), **p<0.01, ANOVA. (C) Analysis of mTOR activity (as in A) in HEK293T cells treated with increasing doses of silica in full medium for 1 h. (D) HEK293T cells were treated with lysosomal damaging agents (LLOMe, Leu-Leu-OMe) for 1 h in full medium and status of acidified organelles assessed by quantifying LysoTracker Red DND-99 puncta using automated high-content imaging and analysis (HC). […] Data, means±SEM, n≥3 independent experiments (500 primary objects counted per well; ≥5 wells/sample per each experiment), **p<0.01, ANOVA. […] Human peripheral blood monocyte derived macrophages were treated with 100 μM GPN in full medium or starved in EBSS for 1 h, and mTOR activity measured as in A. None-treated cells were as control (Ctrl). […] Data, means±SEM, n≥3 independent experiments (500 primary objects counted per well; ≥5 wells/sample per each experiment) **p<0.01, ANOVA. […]

[2] = tested on: mTOR and RagA; assay: Co-IP of FLAG-tagged galectins with endogenous mTOR or RagA in HEK293T cells; type: binding; settings: HEK293T overexpressing FLAG-tagged galectins
Experimental: (A) Analysis of the puncta formation of galectins in response to GPN. HeLa cells overexpressing YFP-fused with the indicated galectins were treated with 100 μM GPN or without (Ctrl) in full medium for 1 h and galectin puncta were quantified by HC. […] White masks, algorithm defined cell boundaries (primary objects); green masks, computer-identified galectins puncta (target objects). Data, means±SEM, n≥3 independent experiments (500 primary objects counted per well; ≥5 wells/sample per each experiment); *p<0.05, **p<0.01, † p≥0.05, ANOVA. (B) Immunoprecipitation analysis of the interactions between galectins and mTOR or RagA GTPase. HEK293T cells overexpressing FLAG-tagged galectins were subjected to anti-FLAG immunoprecipitation followed by immunoblotting for endogenous mTOR or RagA. (C) Immunoprecipitation analysis of interactions between Gal8 and mTOR protein complexes in response to GPN treatment. THP-1 cells not treated or treated with 100 μM GPN in full medium for 1 h were subjected to immunoprecipitation with anti-Gal8 antibody, followed by immunoblotting for endogenous RagA, p14, mTOR or Raptor. […] Biotinylated proteins from HEK293T cell expressing APEX2-vector or APEX2-Gal8, after GPN and biotin phenol (BP) treatment were affinity-enriched by binding to streptavidin-beads, and samples were analyzed by immunoblotting analysis for endogenous RagA, p14, mTOR or Raptor. […]

Molecule | TFEB nuclear translocation [1] | co-IP with mTOR and RagA [2]
NCC(=O)N[C@@H](Cc1ccccc1)C(=O)Nc1ccc2ccccc2c1 [GPN, glycyl-L-phenylalanine 2-naphththylamide] (HELM PEPTIDE1{G.F.[c1ccc2cc(N[*:1])ccc2c1]}$$$$V2.0) | translocated to the nucleus from the cytoplasm | –
Gal8: protein of the galectin family encoded by the gene LGALS8; beta-galactoside-binding lectin | – | found in co-IPs
